Assay results reported in patent US10806721B2, “Formulation for use in the treatment of uremic pruritus” (DRUG DELIVERY SOLUTIONS, priority 2016, dated 2020).

Assays:
[1] = tested on: Human Reconstructed Epidermis (RHE); test: ELISA of carbamoylated proteins in RHE with urea in the growth medium (Example 4); assay type: cell-based
From the text: (§1) Protein analysis was made according to a previous developed method (14). Carbamoylated proteins from the skin samples were coated to ELISA wells and quantified using a using a primary polyclonal anti-homocitrullin antibody and a secondary labelled polyclonal detection antibody.
The same method as described in example 3 was used. The studies were based on the use of the Human Reconstructed Epidermis (RHE) model purchased from Episkin®. Three experiments were made in duplicate including 2 controls. Growth media (1 ml) with and without additions (see below) were replaced daily accordingly to the standard protocol. In contrast to Example 3 the urea exposure was made by addition of urea to the growth medium. Experiment 1 corresponds to the two controls; experiment 2 was with growth medium with 4 mg/ml urea; experiment 3 was with growth medium with 4 mg/ml urea and with addition of 5 mg […] cream with 2% amino acids applied on top of RHE skin surface at Day 0 and Day 3. All 6 skin samples looked macroscopically healthy when they were harvested after 6 days. There were no signs of infection or necrosis. They were immediately frozen at minus 80° C. until protein analysis. Parts of all samples were sent for histological examination.
Protein carbamoylated was investigated using the same method as in Experiment 3.

[2] = tested on: reconstructed human epidermis (RHE); test: Histological examination of reconstructed human epidermis exposed to urea (Example 3); assay type: cell-based
Description: (§2) To further investigate possible carbamylation in human skin in UP (Uremic Pruritus) the inventors conducted a series of studies in the reconstructed human epidermis (RHE) model. The 4 cm^2 large skin samples were delivered from Episkin® in 6 well plates each with a volume of 1 ml. The experiments were carried out in 18-25 days old skin samples. RHE is a standardized technology used to investigate metabolic, toxic and inflammatory reactions in the skin (13). The skin samples were developed from human epidermal stem cells. They were developed on a […] net with an underlying growth medium. The RHE contains all the different cell layers in the epidermis, including stratum corneum. The samples are kept at 37° C. in a 5% CO2 atmosphere. They are handled under sterile conditions. New growth medium is added daily. The 4 cm^2 large skin samples were ready for use after 18 days' development; a time span similar to the normal turnover of human skin.
(§3) 12 individual experiments were carried out including 2 controls. Growth media (1 ml) were replaced daily according to the standard protocol. 6 of the samples were harvested at day 3 and 6 at day 6 and immediately frozen at minus 80° C. until protein analysis. Parts of all samples were sent for histologic examination.
(§4) The following exposures (individual experiments), all from stratum corneum side of the skin sample, were made.
(§5) 2. Urea in an aqueous solution in the same amount—calculated as mg/cm^2 skin—, as in UP. This calculated amount corresponds to 0.3 mg/cm^2, based on calculation of the sum of the average serum levels of urea in uremic patients, urea from sweat, and contribution from active transport of urea into the cells in epidermis. The addition of urea is done by the addition of 200 μl of a solution of 6 mg urea/ml) to the surface of the skin samples.
(§6) 3. As under above item 2 but in double amount (0.6 mg/cm^2).
(§7) 4. As under above item 3 and added 200 μl of a 1% histidine solution.
(§8) 5. 5% commercially available urea cream dosed as intended human use
6. 10% commercially available urea cream dosed as intended human use […]

[3] = tested on: reconstructed human epidermis (RHE); test: ELISA of carbamoylated proteins in reconstructed human epidermis exposed to urea from the stratum corneum side (Example 3); assay type: cell-based; settings: for ELISA reading, carbamoylated proteins, Day 3: harvested day 3; for ELISA reading, carbamoylated proteins, Day 6: harvested day 6; for carbamylation of proteins (result in words): exposure on top of RHE skin samples, within 6 days
Description: as §2, §3, §4
1. Controls: Left untreated.
as §5, §6, §7, §8
6. 10% commercially available urea cream dosed as intended human use
The skin samples harvested at day 3 were exposed day 0 to 2-6 and day 1 to 2-4. (tabl. 1)
The skin samples is harvested at day 6 were exposed as above and further day 3 to 2-6. In agreement with Table 1 the aqueous urea solution was absorbed immediately through the skin samples. The two creams left a deposit on top of the skin and were therefore only applied twice; day 0 and day 3 (for the 6-day experiment). Daily exposures were abstained to minimize the risk of infection. […] Further the urea concentrations from experiments 2, 3 and 4 harvested day 6 may have been relatively low due to only one supplementary exposure day 3.
as §1

[4] = Degradation of histidine in the cream of Example 1 exposed to urea; assay type: physicochemical; settings: cream of Example 1 with 10 w/w % urea; six weeks at 40° C.
Description: The degradation process was followed over time and after six weeks at 40° C. only 20% histidine was left in the cream having 10 w/w % urea.

[5] = Urea conc. as in UP (high) 12 mg, 0.6 mg/cm^2 on skin surface
[6] = Urea conc. as in UP (moderate) 6 mg, 0.3 mg/cm^2 on skin surface
[7] = 0.5% histidine added to urea conc. as in UP (high) 12 mg

NC(N)=O [Urea]
Elisa reading, carbamoylated proteins, average of two experiments ([1]; GM + 4 mg urea/ml, harvested after 6 days): 0.68 absorbance units | level of protein carbamylation (result in words) ([1]; growth medium with 4 mg/ml urea, 6 days): highest level of carbamylation | histological changes (edema and disruptions in stratum corneum, premature cell death in stratum spinosum) ([2]; harvested day 3): significant changes | histological changes ([2]; harvested day 6): recovered to a certain extent | ELISA reading, carbamoylated proteins, Day 3 [3, 5]: 0.316 absorbance units | ELISA reading, carbamoylated proteins, Day 6 [3, 5]: 0.475 absorbance units | ELISA reading, carbamoylated proteins, Day 3 [3, 6]: 0.377 absorbance units | ELISA reading, carbamoylated proteins, Day 6 [3, 6]: 0.368 absorbance units | carbamylation of proteins (result in words) [3]: could be demonstrated

N[C@@H](Cc1c[nH]cn1)C(=O)O [histidine]
effect on urea-induced edema and cell death (histology) ([2]; histidine added to urea 0.6 mg/cm^2, harvested both day 3 and day 6): can counteract this effect | ELISA reading, carbamoylated proteins, Day 3 [3, 7]: 0.312 absorbance units | ELISA reading, carbamoylated proteins, Day 6 [3, 7]: 0.321 absorbance units | carbamylation of proteins (result in words) [3]: prevented this carbamylation | histidine left in the cream [4]: 20%
